Results on two molecules are retold here after patent US20060194856A1, “Use of atii antagonist for the treatment or prevention of metabolic syndrome” (ASTRAZENECA AB, priority 2003, published 2006).

SMILES strings stand for the structures. Several values for one entry are separate records, joined by “and”; a condition that tells them apart may be missing. Equal values may be shown once.

Assay [1] is described as follows: Clinical study: fasting serum insulin and plasma glucose. It is filed as in vivo, patients. The following applies: for P-glucose, At 12 months / S-insulin, At 12 months / S-insulin/P-glucose, At 12 months: at 12 months of treatment; for P-glucose, At 12 months / S-insulin, At 12 months / P-glucose, Baseline / S-insulin, Baseline: fasting; for P-glucose, At 12 months / S-insulin, At 12 months / S-insulin/P-glucose, At 12 months / P-glucose, Baseline / S-insulin, Baseline / S-insulin/P-glucose, Baseline / P-glucose, Mean change at 12 months / S-insulin, Mean change at 12 months / S-insulin/P-glucose, Mean change at 12 months: mean (SD); for P-glucose, Baseline / S-insulin, Baseline / S-insulin/P-glucose, Baseline: baseline (before randomised treatment); for P-glucose, Mean change at 12 months / S-insulin, Mean change at 12 months / S-insulin/P-glucose, Mean change at 12 months: change from baseline to 12 months; for Fasting levels of both serum insulin and plasma glucose during treatment: result in words, 12 months treatment. As to the method:
The fasting plasma glucose level is defined as the concentration of glucose in the plasma of a subject after an overnight's fast. Patients were instructed not to eat breakfast on the morning of the follow-up visits.
(§1) A clinical study was performed. It was a study with a double-blind, randomised, controlled, parallel group design.
(§2) After four weeks of single-blind treatment with placebo, the patients were randomised to double-blind treatment with either candesartan cilexetil 16 mg or hydrochlorothiazide 25 mg and followed for one year. If sitting systolic or diastolic blood pressure was above target pressure (<130/<85 mmHg, for patients below 65 years, or <140/<90 mmHg, if 65 years or older) [1999 World Health Organization (WHO)—International Society of Hypertension Guidelines for the Management of Hypertension. Journal of Hypertension 1999; 17; 151-83] at any visit during the treatment period, double-blind treatment with felodipine extended-release 2.5-5.0 mg was added to the candesartan group and atenolol 50-100 mg was added to the hydrochlorothiazide group. No further antihypertensive treatment was allowed. Two patients were withdrawn from the study, both in the candesartan cilexetil group, since their blood pressure exceeded the pre-specified safety level (≧180 and/or ≧105 mm Hg, mean of two recordings at different visits).
Analyses of plasma glucose were carried out at the Department of Clinical Chemistry, Umeå University Hospital. Plasma glucose was routinely analysed by Vitros 950 glucose oxidase method (Ortho Clinical Diagnostics).
(§3) Efficacy variables were analysed using analysis of covariance (ANCOVA) with treatment and health centre as factors and baseline value as covariate. Difference in treatment effect was estimated with 95% confidence interval. To test difference between treatments in change of biochemistry variables the Wilcoxon Rank Sum test was used. […] In this approach all randomised patients who had completed the study and had taken at least one dose of study drug were included.

Assay [2] can be described thus: Clinical study: metabolic syndrome diagnosed according to WHO criteria. It is filed as in vivo, patients. As to conditions: n = 196 per group. How it is done:
as §1, §2
The metabolic syndrome was diagnosed according to the following criteria [World Health Organization (WHO). Department of Noncommunicable Disease Surveillance. Geneva: WHO 1999 pp 1-59]: • 1. Fasting plasma glucose above 6.1 mmol/L • 2. Blood pressure above 140/90 mm Hg • 3. One or more of the following: • a. plasma triglycerides above 1.7 mmol/L and/or HDL below 0.9 mmol/L (men), below 1.0 mmol/L (women) • b. Body mass index above 30 kg/m^2 Statistical Analyses

A short description of assay [3]: Clinical study: plasma triglycerides. It is filed as in vivo. As to conditions: individual patients of the candesartan cilexetil group with metabolic syndrome at baseline but not after 12 months. As to the method: as §1
After four weeks of single-blind treatment with placebo, the patients were randomised to double-blind treatment with either candesartan cilexetil 16 mg or hydrochlorothiazide 25 mg and followed for one year. If sitting systolic or diastolic blood pressure was above target pressure (<130/<85 mmHg, for patients below 65 years, or <140/<90 mmHg, if 65 years or older) [1999 World Health Organization (WHO)—International Society of Hypertension Guidelines for the Management of Hypertension. […]
Total plasma cholesterol, LDL-cholesterol, HDL-cholesterol and triglycerides were determined in all patients at randomisation (n=392), and in most patients after six months (n=354), and after 12 months (n=352). Total plasma cholesterol and triglycerides concentrations were determined enzymatically. HDL-cholesterol was measured after the precipitation of apolipoprotein B-containing lipoproteins in whole plasma by heparin-manganese chloride [Lipid Research Clinics Program: Manual of Laboratory Operations, Bethesda, Md.: National Institutes of Health, Vol 1. […] Their LDL cholesterol levels were not calculated.

The nature of assay [4]: Double-blind randomised clinical study: sitting blood pressure and heart rate. As to conditions: for patients who attained a blood pressure <140/<90 mm Hg: after one year; for SBP, mean change / DBP, mean change / Heart rate, mean change: sitting, mean (SD). The class given is in vivo, patients. As to the method:
as §1
For inclusion, sitting blood pressure should be in the range of 140-179 and/or 90-104 mm Hg (mean of two measurements according to standardised procedures [1999 World Health Organization (WHO)—International Society of Hypertension Guidelines for the Management of Hypertension. Journal of Hypertension 1999; 17; 151-83] and at two visits) on placebo treatment and after the patients had been subjected to non-pharmacological treatment, as recommended [The Swedish Council on Technology Assessment in Health Care (SBU). Moderately elevated blood pressure. J Intern Med 1995; 238(Suppl 737): S1-S128; 1999 World Health Organization (WHO)—International Society of Hypertension Guidelines for the Management of Hypertension. Journal of Hypertension 1999; 17; 151-83] for one month or longer. Since the non-pharmacological intervention had been introduced before the start of the study and then maintained, its effect on metabolic variables during the study was minimal.
as §2, §3

The mark [5] stands for this setting: at 6 months, hypertensive patients, candesartan cilexetil 16 mg (+ felodipine if needed) or HCTZ 25 mg (+ atenolol if needed).

As for `CCOc1nc2cccc(C(=O)OC(C)OC(=O)OC3CCCCC3)c2n1Cc1ccc(-c2ccccc2-c2nn[nH]n2)cc1` (centres unmarked) [Candesartan cilexetil, candesartan cilexetil], in assay [1], the “P-glucose, At 12 months” value is listed as 5.10 (0.57) mmol/L; the “S-insulin, At 12 months” value was 8.96 (5.42) mlU/L; the “S-insulin/P-glucose, At 12 months” value is 1.76 (1.06); the “P-glucose, Baseline” value is given as 5.17 (0.58) mmol/L. In assay [1], the “S-insulin, Baseline” value is 9.25 (7.90) mlU/L; the “S-insulin/P-glucose, Baseline” value is recorded as 1.77 (1.38); the “P-glucose, Mean change at 12 months” value was −0.06 (0.46) mmol/L; the “S-insulin, Mean change at 12 months” value is listed as −0.30 (6.50) mlU/L. In assay [1], the “S-insulin/P-glucose, Mean change at 12 months” value was −0.00 (1.23); the “Fasting levels of both serum insulin and plasma glucose during treatment” value was “unaffected”. Moreover, the “Fasting glucose, 12 months” value in assay [1] (individual patients 1-8 of the candesartan cilexetil group with metabolic syndrome at baseline but not after 12 months, after 12 months) is 5.5 mmol/L and 5.7 mmol/L (2×) and 5.6 mmol/L and 5.2 mmol/L and 6.0 mmol/L and 5.9 mmol/L. In assay [1] (individual patients 1-8 of the candesartan cilexetil group with metabolic syndrome at baseline but not after 12 months, baseline), the “Fasting glucose, Baseline” value was 6.1 mmol/L and 6.5 mmol/L and 6.2 mmol/L (4×) and 6.4 mmol/L. The “patients suffering from the metabolic syndrome as defined by WHO” value (“patients suffering” for short) in assay [2] (at base-line) is recorded as 13 patients. The “Triglycerides, 12 months” value in assay [3] (after 12 months) is 1.59 mmol/L and 1.44 mmol/L and 1.28 mmol/L. Also, the “Triglycerides, Baseline” value in assay [3] (baseline) is 2.15 mmol/L and 2.34 mmol/L and 2.65 mmol/L. In addition, in assay [4], the “patients who attained a blood pressure <140/<90 mm Hg” value was found to be 65%. The “SBP, mean change” value in assay [4] (setting [5]) is recorded as −20.9 (13.1) mm Hg. Further, in assay [4] (at 6 months, same regimens), the “DBP, mean change” value is −12.8 (6.9) mm Hg and the “Heart rate, mean change” value is −2.1 (8.4) bpm. Besides, in assay [4] (at 12 months, same regimens), the “DBP, mean change” value is reported as −13.0 (7.4) mm Hg; the “Heart rate, mean change” value was −2.2 (8.4) bpm; the “SBP, mean change” value is given as −21.0 (15.2) mm Hg.
As to `NS(=O)(=O)c1cc2c(cc1Cl)NCNS2(=O)=O` [HCTZ, hydrochlorothiazide], in assay [1], the “P-glucose, At 12 months” value is on record as 5.42 (0.89) mmol/L; the “S-insulin, At 12 months” value is given as 11.00 (6.88) mlU/L; the “S-insulin/P-glucose, At 12 months” value was 2.03 (1.23); the “P-glucose, Baseline” value is given as 5.29 (0.98) mmol/L. Moreover, in assay [1], the “S-insulin, Baseline” value is 9.65 (6.09) mlU/L; the “S-insulin/P-glucose, Baseline” value is on record as 1.83 (1.10); the “P-glucose, Mean change at 12 months” value is 0.13 (0.69) mmol/L; the “S-insulin, Mean change at 12 months” value is listed as 1.35 (6.09) mlU/L. Besides, in assay [1], the “S-insulin/P-glucose, Mean change at 12 months” value is 0.20 (1.13); the “Fasting levels of both serum insulin and plasma glucose during treatment” value is reported as “increased”. Besides, the “patients suffering” value in assay [2] (at 12 months, p=0.007 between groups) is reported as 18 patients. Moreover, the “patients suffering” value in assay [2] (at base-line) is 12 patients. The “patients who attained a blood pressure <140/<90 mm Hg” value in assay [4] was 62%. Moreover, in assay [4] (setting [5]), the “SBP, mean change” value is on record as −23.9 (13.0) mm Hg. Moreover, in assay [4] (at 6 months, same regimens), the “DBP, mean change” value is listed as −13.9 (7.1) mm Hg and the “Heart rate, mean change” value is −6.8 (10.1) bpm. Moreover, in assay [4] (at 12 months, same regimens), the “DBP, mean change” value is reported as −12.9 (7.7) mm Hg; the “Heart rate, mean change” value is reported as −7.3 (9.4) bpm; the “SBP, mean change” value was −22.8 (14.9) mm Hg.
